O=C(O)[C@@H](O)CCc1ccccc1
solubility (mole fraction)
Conditions | in ethyl acetate | in toluene | in water
278.2 K | 0.107 | – | –
283.2 K | 0.117 | – | 0.00071
288.2 K | 0.128 | 0.0013 | 0.00094
293.2 K | 0.14 | 0.00169 | 0.00107
298.2 K | 0.15 | 0.00235 | 0.00137
303.2 K | 0.16 | 0.00298 | 0.00172
308.2 K | 0.174 | 0.00407 | 0.00229
313.2 K | 0.182 | 0.00555 | 0.00311
318.2 K | – | 0.00729 | 0.00406
323.2 K | – | 0.00996 | 0.00701
328.2 K | – | 0.0127 | 0.0142
333.2 K | – | 0.0173 | 0.044
338.2 K | – | 0.0238 | –
343.2 K | – | 0.0341 | –
